In US20110269783A1, “NOVEL 2,3-DIAMINO-QUINAZOLINONE DERIVATIVES AND THEIR MEDICAL USE” (NEUROSEARCH A/S, priority 2008, published 2011):

Molecular target: T1, human Kv7.2+3 (Homo sapiens, UniProt O43525+O43526)
T1 construct: expressed in transfected cells; host or cells: HEK293
Test: FLIPR-based thallium influx characterization of Kv7.2+3 modulators
Type: cell-based
Details: for EC50: HEK293 cells over-expressing human Kv7.2+3, Tl+ influx, BTC-AM, FLIPR, 50% of channel activity compared to retigabine control responses; for Emax: maximal response relative to the reference (retigabine) response, HEK293 human Kv7.2+3, Tl+ influx FLIPR, read-out: Efficacy
Experimental: This experiment determines the ability of a test compound to modulate the activity of Kv7.2+3 channels heterologously expressed in human HEK293 cells. The ability is determined relative to retigabine. The activity is determined using a standard thallium (I) sensitive assay, e.g. using a fluorometric method in a Fluorescent Image Plate Reader (FLIPR) as described below in more detail.
Full concentration/response curves are generated and EC50 values are calculated based on max values. EC50 values (Effective Concentration) represent the concentration of the test substance, at which 50% of the channel activity is obtained when compared to retigabine control responses. Maximal response determined relative to the reference (retigabine) response is calculated.
Human HEK293 cells over-expressing human Kv7.2+3 are grown in culture medium (DMEM supplemented with 10% foetal bovine serum), in polystyrene culture flasks ([…]) in a humidified atmosphere of 5% CO2 in air, at 37° C. Cell confluence should be 80-90% on day of plating. Cells are rinsed with 4 ml of PBS (phosphate buffered saline) and incubated 2 min with 1 ml of Trypsin-EDTA. After addition of 25 ml of culture medium cells are re-suspended by trituration with a 25 ml pipette.
The cells are seeded at a density of ˜3×10^6 cells/ml (25 μl/well) in black-walled, clear bottom, 384-well plates pre-treated with 0.01 g/l poly-D-lysin (20 μl/well for ≧30 min). Plated cells were allowed to proliferate for 24 h before loading with dye.
BTC-AM ([…], Invitrogen) is added 25.5 μl DMSO. The BTC-AM stock solution (2 mM) is diluted to a final concentration of 2 μM in Cl^− free assay buffer (in mM: 140 Natgluconate, 2.5 K^+-gluconate, 6 Ca2^+-gluconate, 1 Mg^2+ gluconate, 5 glucose, 10 HEPES, pH 7.3) containing 2 μM ouabain, 2 mM amaranth and 1 mM tartrazine.
The culture medium is aspirated from the wells, the cells are washed thrice in Cl^− free assay buffer, and 25 μl of the BTC-AM loading solution is added to each well. The cells are incubated at 37° C. for 60 min.
After the loading period, the Tl^+-sensitive BTC fluorescence signal is measured over time using a FLIPR.
• Temperature: Room temp. • First addition: 12 μl test or control compound after 15 sec at a rate of 30 μl/sec and starting height of 20 μl • Second addition: 12 μl stimulus buffer (Cl^− free assay buffer supplemented with 1 mM Tl2SO4, 5 mM K2SO4 as well as the quenchers amaranth (2 mM) and tartrazine (1 mM)) is added after an additional 3 minutes at a rate of 30 μl/sec and starting height of 30 μl • Reading intervals: First sequence—3 sec×5, 2 sec×24 and 5 sec×25 • Second sequence—1 sec×5, 2 sec×24 and 5 sec×36
Addition plates (compound plate and stimulus plate) are placed in positions 2 and 3, respectively. Cell plates are placed in position 1 and run using the “KCNQ (two additions)” program. FLIPR will then take the appropriate measurements in accordance with the interval settings above. Fluorescence obtained after stimulation is corrected for the mean basal fluorescence (in Cl^− free assay buffer).
Full concentration/response curves are generated and EC50 values (“Effective Concentration”; the concentration at which 50% of the channel activity is obtained when compared to retigabine control responses) are calculated based on peak values. Maximal response determined relative to the reference (retigabine) response is calculated.

## O=C(CCc1ccccc1)Nn1c(N2CCCC2)nc2ccccc2c1=O [Compound 1.6, N-(4-Oxo-2-pyrrolidin-1-yl-4H-quinazolin-3-yl)-3-phenyl-propionamide]
  EC50: 0.66 µM
  Emax: 96%

## CC(C)N(C)c1nc2cc(F)ccc2c(=O)n1NC(=O)[C@@H]1C[C@@H]1c1ccc(Cl)cc1 (relative stereo) [Compound 2.5, cis-2-(4-Chloro-phenyl)-cyclopropanecarboxylic acid [7-fluoro-2-(isopropyl-methyl-amino)-4-oxo-4H-quinazolin-3-yl]-amide]
  EC50: 0.93 µM
  Emax: 114%

## CCN(C)c1nc2cc(F)ccc2c(=O)n1NC(=O)[C@@H]1C[C@@H]1c1ccc(Cl)cc1 (relative stereo) [Compound 2.4, cis-2-(4-Chloro-phenyl)-cyclopropanecarboxylic acid [2-(ethyl-methyl-amino)-7-fluoro-4-oxo-4H-quinazolin-3-yl]-amide]
  EC50: 0.94 µM
  Emax: 114%

## O=C(CCc1cc(F)cc(F)c1)Nn1c(N2CCCC2)nc2cc(F)cc(F)c2c1=O [Compound 1.15, N-(5,7-Difluoro-4-oxo-2-pyrrolidin-1-yl-4H-quina-zolin-3-yl)-3-(3,5-difluoro-phenyl)-propionamide]
  EC50: 0.018 µM
  Emax: 112%

## CC(CC(=O)Nn1c(N2CCCC2)nc2ccccc2c1=O)c1cccc(F)c1 (centres unmarked) [Compound 1.18, 3-(3-Fluoro-phenyl)-N-(4-oxo-2-pyrrolidin-1-yl-4H-quinazolin-3-yl)-butyramide]
  EC50: 0.015 µM
  Emax: 98%

## O=C(COc1ccccc1)Nn1c(N2CCCC2)nc2ccccc2c1=O [Compound 1.9, N-(4-Oxo-2-pyrrolidin-1-yl-4H-quinazolin-3-yl)-2-phenoxy-acetamide]
  EC50: 12 µM
  Emax: 75%

## CN(Cc1ccccc1)c1nc2ccccc2c(=O)n1NC(=O)CCc1cc(F)cc(F)c1 [Compound 1.4, N-[2-(Benzyl-methyl-amino)-4-oxo-4H-quinazolin-3-yl]-3-(3,5-difluoro-phenyl)-propionamide]
  EC50: 3.9 µM
  Emax: 40%

## CN(C)c1nc2cc(F)ccc2c(=O)n1NC(=O)[C@@H]1C[C@@H]1c1ccc(Cl)cc1 (relative stereo) [Compound 2.1, cis-2-(4-Chloro-phenyl)-cyclopropanecarboxylic acid (2-dimethylamino-7-fluoro-4-oxo-4H-quinazolin-3-yl)-amide]
  EC50: 1.4 µM
  Emax: 118%

## O=C(CSc1ccc(F)cc1)Nn1c(N2CCCC2)nc2ccccc2c1=O [Compound 1.11, 2-(4-Fluoro-phenylsulfanyl)-N-(4-oxo-2-pyrrolidin-1-yl-4H-quinazolin-3-yl)-acetamide]
  EC50: 2.2 µM
  Emax: 106%

## O=C(CCc1cccc(F)c1)Nn1c(N2CCCC2)nc2cccc(F)c2c1=O [Compound 1.10, N-(5-Fluoro-4-oxo-2-pyrro-lidin-1-yl-4H-quinazolin-3-yl)-3-(3-fluoro-phenyl)-propionamide]
  EC50: 0.34 µM
  Emax: 100%

## O=C(CCc1cccc(F)c1)Nn1c(N2CCCC2)nc2cc(F)cc(F)c2c1=O [Compound 1.12, N-(5,7-Difluoro-4-oxo-2-pyrrolidin-1-yl-4H-quina-zolin-3-yl)-3-(3-fluoro-phenyl)-propionamide]
  EC50: 0.032 µM
  Emax: 122%

## CN(Cc1ccccc1)c1nc2ccccc2c(=O)n1NC(=O)CCc1cccc(F)c1 [Compound 1.3, N-[2-(Benzyl-methyl-amino)-4-oxo-4H-quinazolin-3-yl]-3-(3-fluoro-phenyl)-propion-amide]
  EC50: 1.6 µM
  Emax: 118%

## O=C(Nn1c(N2CCCC2)nc2c(F)cccc2c1=O)[C@@H]1C[C@@H]1c1ccc(Cl)cc1 (relative stereo) [Compound 2.7, cis-2-(4-Chloro-phenyl)-cyclopropanecarboxylic acid (8-fluoro-4-oxo-2-pyrrolidin-1-yl-4H-quinazolin-3-yl)-amide]
  EC50: 0.27 µM
  Emax: 101%

## CC(CC(=O)Nn1c(N2CCCC2)nc2ccccc2c1=O)c1ccc(Cl)cc1 (centres unmarked) [Compound 1.17, 3-(4-Chloro-phenyl)-N-(4-oxo-2-pyrrolidin-1-yl-4H-quinazolin-3-yl)-butyramide]
  EC50: 0.1 µM
  Emax: 85%

## O=C(CCc1cccc(F)c1)Nn1c(N2CCCC2)nc2cc(F)ccc2c1=O [Compound 1.1, N-(7-Fluoro-4-oxo-2-pyrrolidin-1-yl-4H-quinazolin-3-yl)-3-(3-fluoro-phenvl)-propion-amide]
  EC50: 0.26 µM
  Emax: 154%

## O=C(CCc1cccc(F)c1)Nn1c(N2CCCC2)nc2ccccc2c1=O [Compound 1.5, 3-(3-Fluoro-phenyl)-N-(4-oxo-2-pyrrolidin-1-yl-4H-quinazolin-3-yl)-propion-amide]
  EC50: 0.41 µM
  Emax: 148%

## COCCN(C)c1nc2ccccc2c(=O)n1NC(=O)CCc1cccc(F)c1 [Compound 1.2, 3-(3-Fluoro-phenyl)-N-{2-[(2-methoxy-ethyl)-methyl-amino]-4-oxo-4H-quinazolin-3-yl}-propionamide]
  EC50: 9.5 µM
  Emax: 130%

## CC(C)N(C)c1nc2cc(F)cc(F)c2c(=O)n1NC(=O)CCc1cccc(F)c1 [Compound 1.14, N-[5,7-Difluoro-2-(isopropyl-methyl-amino)-4-oxo-4H-quinazolin-3-yl]-3-(3-fluoro-phenyl)-propionamide]
  EC50: 0.45 µM
  Emax: 109%

## O=C(Nn1c(N2CCCC2)nc2cc(F)cc(F)c2c1=O)[C@@H]1C[C@@H]1c1ccc(Cl)cc1 (relative stereo) [Compound 2.3, cis-2-(4-Chloro-phenyl)-cyclopropanecarboxylic acid (5,7-difluoro-4-oxo-2-pyrro-lidin-1-yl-4H-quinazolin-3-yl)-amide]
  EC50: 0.83 µM
  Emax: 109%

## CC(C)(C)c1ccc(SCC(=O)Nn2c(N3CCCC3)nc3ccccc3c2=O)cc1 [Compound 1.13, 2-(4-tert-Butyl-phenyl-sulfanyl)-N-(4-oxo-2-pyrro-lidin-1-yl-4H-quinazolin-3-yl)-acetamide]
  EC50: 2.1 µM
  Emax: 41%

## CN(C)c1nc2cc(F)ccc2c(=O)n1NC(=O)CCc1cccc(F)c1 [Compound 1.7, N-(2-Dimethylamino-7-fluoro-4-oxo-4H-quinazolin-3-yl)-3-(3-fluoro-phenyl)-propionamide]
  EC50: 2.5 µM
  Emax: 112%

## C[C@@H](CC(=O)Nn1c(N2CCCC2)nc2cc(F)cc(F)c2c1=O)c1ccccc1 [Compound 1.16, (S)-N-(5,7-Difluoro-4-oxo-2-pyrrolidin-1-yl-4H-quina-zolin-3-yl)-3-phenyl-butyr-amide]
  EC50: 0.0028 µM
  Emax: 68%

## O=C(CSc1ccccc1)Nn1c(N2CCCC2)nc2ccccc2c1=O [Compound 1.8, N-(4-Oxo-2-pyrrolidin-1-yl-4H-quinazolin-3-yl)-2-phenylsulfanyl-acetamide]
  EC50: 3.3 µM
  Emax: 103%

## CCN(C)c1nc2cc(F)cc(F)c2c(=O)n1NC(=O)[C@@H]1C[C@@H]1c1ccc(Cl)cc1 (relative stereo) [Compound 2.6, cis-2-(4-Chloro-phenyl)-cyclopropanecarboxylic acid [2-(ethyl-methyl-amino)-5,7-difluoro-4-oxo-4H-quina-zolin-3-yl]-amide]
  EC50: 0.5 µM
  Emax: 110%

## CC(C)N(C)c1nc2cc(F)cc(F)c2c(=O)n1NC(=O)[C@@H]1C[C@@H]1c1ccc(Cl)cc1 (relative stereo) [Compound 2.2, cis-2-(4-Chloro-phenyl)-cyclopropanecarboxylic acid [5,7-difluoro-2-(isopropyl-methyl-amino)-4-oxo-4H-quinazolin-3-yl]-amide]
  EC50: 0.45 µM
  Emax: 116%
